# Activity calls are given as the source filed them. The rule behind the calls is not given here.
# How the values were obtained:
# Caenorhabditis elegans [1] = assay: Inhibition of […] in Caenorhabditis elegans N2 Bristol assessed as increase in pharyngeal musle contraction frequency at 50 mg/l after 6 hr relative to control; type: functional, organism-based
# Meloidogyne incognita [2] = assay: Ovicidal activity against Meloidogyne incognita (root-knot nematode) eggs assessed as inhibition of egg hatching at 40 mg/l after 120 hr relative to control; type: functional
# Meloidogyne incognita [3] = assay: Nematicidal activity against J2 juveniles of Meloidogyne incognita (root-knot nematode) after 72 hr relative to control; type: functional
# Meloidogyne incognita [4] = assay: Ovicidal activity against Meloidogyne incognita (root-knot nematode) eggs assessed as inhibition of egg hatching at 40 mg/l after 24 to 72 hr relative to control; type: functional; conditions: read-out: mortality
# Caenorhabditis elegans [5] = assay: Nematicidal activity against adult Caenorhabditis elegans N2 Bristol assessed as mortality at 40 mg/l after 48 hr relative to control; type: functional
# Caenorhabditis elegans [6] = assay: Inhibition of […] in Caenorhabditis elegans N2 Bristol assessed as increase in pharyngeal musle contraction frequency at 50 mg/l after 1 hr relative to control; type: functional
# Caenorhabditis elegans [7] = assay: Nematicidal activity against adult Caenorhabditis elegans N2 Bristol assessed as mortality at 40 mg/l after 24 hr relative to control; type: functional
# Caenorhabditis elegans [8] = assay: Nematicidal activity against adult Caenorhabditis elegans N2 Bristol after 48 hr; type: functional
# Caenorhabditis elegans [9] = assay: Nematicidal activity against adult Caenorhabditis elegans N2 Bristol after 120 hr; type: functional
# Caenorhabditis elegans [10] = assay: Nematicidal activity against adult Caenorhabditis elegans N2 Bristol assessed as mortality at 40 mg/l after 120 hr relative to control; type: functional
# Caenorhabditis elegans [11] = assay: Nematicidal activity against adult Caenorhabditis elegans N2 Bristol after 168 hr; type: functional
# Meloidogyne incognita [12] = assay: Ovicidal activity against Meloidogyne incognita (root-knot nematode) eggs after 168 hr; type: functional, organism-based
# Meloidogyne incognita [13] = assay: Nematicidal activity against J2 juveniles of Meloidogyne incognita (root-knot nematode) after 120 hr relative to control; type: functional
# Meloidogyne incognita [14] = assay: Nematicidal activity against J2 juveniles of Meloidogyne incognita (root-knot nematode) after 168 hr relative to control; type: functional
# Caenorhabditis elegans [15] = assay: Nematicidal activity against adult Caenorhabditis elegans N2 Bristol after 72 hr; type: functional
# [16] = system: Heterorhabditis bacteriophora; assay: Nematicidal activity against J3 juveniles of Heterorhabditis bacteriophora assessed as mortality at 200 mg/l after 168 hr relative to control; type: functional
# Meloidogyne incognita [17] = assay: Nematicidal activity against J2 juveniles of Meloidogyne incognita (root-knot nematode) assessed as mortality at 40 mg/l after 48 hr relative to control; type: functional
# Caenorhabditis elegans [18] = assay: Nematicidal activity against J4 juvenile of Caenorhabditis elegans after 24 hr; type: functional
# Caenorhabditis elegans [19] = assay: Nematicidal activity against adult Caenorhabditis elegans after 24 hr; type: functional
# [20] = system: Bursaphelenchus xylophilus; assay: Nematicidal activity against Bursaphelenchus xylophilus assessed as mortality at 1 mg/l after 48 hr relative to control; type: functional
# [21] = target: T1, Chloride channel protein clh-3 (Caenorhabditis elegans) (UniProt Q9BMK9); conditions: 100 uM
# T1 sequence (whole entry): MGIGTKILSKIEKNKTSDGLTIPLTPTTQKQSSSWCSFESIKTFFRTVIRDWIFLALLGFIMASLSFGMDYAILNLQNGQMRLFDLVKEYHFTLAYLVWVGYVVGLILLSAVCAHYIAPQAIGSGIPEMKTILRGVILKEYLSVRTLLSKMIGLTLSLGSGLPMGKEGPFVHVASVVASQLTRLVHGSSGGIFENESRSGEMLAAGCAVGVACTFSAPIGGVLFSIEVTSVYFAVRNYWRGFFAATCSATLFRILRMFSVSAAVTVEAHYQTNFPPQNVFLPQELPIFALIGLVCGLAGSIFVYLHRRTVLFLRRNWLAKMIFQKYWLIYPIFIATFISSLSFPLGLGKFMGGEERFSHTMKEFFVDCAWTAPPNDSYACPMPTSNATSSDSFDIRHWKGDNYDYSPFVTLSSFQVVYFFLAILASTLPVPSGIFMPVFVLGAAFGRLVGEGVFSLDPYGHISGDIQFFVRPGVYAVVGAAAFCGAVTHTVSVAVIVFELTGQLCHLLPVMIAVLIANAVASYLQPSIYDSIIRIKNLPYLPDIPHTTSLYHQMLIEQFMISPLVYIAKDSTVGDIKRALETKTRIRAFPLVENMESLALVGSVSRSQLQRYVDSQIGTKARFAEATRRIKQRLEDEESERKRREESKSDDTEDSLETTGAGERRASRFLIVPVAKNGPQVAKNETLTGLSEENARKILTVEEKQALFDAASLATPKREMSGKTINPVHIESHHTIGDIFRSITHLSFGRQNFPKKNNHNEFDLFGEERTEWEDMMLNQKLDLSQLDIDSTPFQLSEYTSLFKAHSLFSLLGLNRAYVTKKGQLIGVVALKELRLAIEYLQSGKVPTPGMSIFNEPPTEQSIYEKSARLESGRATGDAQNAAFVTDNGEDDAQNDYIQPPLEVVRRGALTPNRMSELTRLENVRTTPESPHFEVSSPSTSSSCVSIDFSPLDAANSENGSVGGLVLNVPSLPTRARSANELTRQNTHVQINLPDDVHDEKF
# Description: Inhibition of CECLC-3 in Caenorhabditis elegans oocyte membrane at 100 uM
# Meloidogyne incognita [22] = assay: Ovicidal activity against Meloidogyne incognita (root-knot nematode) eggs after 120 hr; type: functional, organism-based
# [23] = system: Heterorhabditis bacteriophora; assay: Nematicidal activity against J3 juveniles of Heterorhabditis bacteriophora assessed as mortality at 200 mg/l after 24 hr relative to control; type: functional
# [24] = system: Heterorhabditis bacteriophora; assay: Nematicidal activity against J3 juveniles of Heterorhabditis bacteriophora assessed as mortality at < 200 mg/l; type: functional, organism-based
Compound,inhibition (Caenorhabditis elegans [1]),inhibition at 40 µg/mL (Meloidogyne incognita [2]) [%],LC50 (Meloidogyne incognita [3]) [µg/mL],inhibition of egg hatching at 40 µg/mL (Meloidogyne incognita [4]) [%],mortality at 40 µg/mL (Caenorhabditis elegans [5]) [%],inhibition at 50 µg/mL (Caenorhabditis elegans [6]) [%],mortality at 40 µg/mL (Caenorhabditis elegans [7]) [%],LC50 (Caenorhabditis elegans [8]) [µg/mL],LC50 (Caenorhabditis elegans [9]) [µg/mL],mortality at 40 µg/mL (Caenorhabditis elegans [10]) [%],LC50 (Caenorhabditis elegans [11]) [µg/mL],EC50 (Meloidogyne incognita [12]) [µg/mL],LC50 (Meloidogyne incognita [13]) [µg/mL],LC50 (Meloidogyne incognita [14]) [µg/mL],LC50 (Caenorhabditis elegans [15]) [µg/mL],mortality at 200 µg/mL [16] [%],mortality at 40 µg/mL (Meloidogyne incognita [17]) [%],other results
C[C@@]1(C2CCCC2)Cc2cc(OCCC(=O)O)c(Cl)c(Cl)c2C1=O [INDANYLOXYACETIC ACID],inactive,,,,,,,,,,,,,,,,,
O=C(O)c1c2ccccc2cc2ccccc12 [ANTHRACENE-9-CARBOXYLIC ACID],inactive,< 50,26.8,< 50,45,20,< 50,42.7,8.44,100,5.35,48,11.2,6.27,17.8,< 15,< 50,
CC(C)c1c(O)cc(/C=C/c2ccccc2)cc1O [TAPINAROF],,,,,,,,,,,,,,,,,,LC50 (Caenorhabditis elegans [18]): 50 µg/mL; LC50 (Caenorhabditis elegans [19]): 50 µg/mL
COc1ccc(/C=C/c2ccccc2O)cc1 [2-hydroxy-4'-methoxystilbene],,,,,,,,,,,,,,,,,,mortality at 1 µg/mL [20]: 95%
O=C(O)c1cc([N+](=O)[O-])ccc1NCCCc1ccccc1 [5-NITRO-2-PHENYLPROPYLAMINOBENZOIC ACID [NPPB]],inactive,50,20.1,< 50,> 50,20,< 50,38.4,7.44,100,4.56,34.1,8.09,5.27,15.9,< 15,< 50,inhibition [21]: 90%; EC50 (Meloidogyne incognita [22]): 46.5 µg/mL
O=S(=O)(O)c1cc(N=C=S)ccc1/C=C/c1ccc(N=C=S)cc1S(=O)(=O)O,inactive,50,15.4,< 50,> 50,20,< 50,29.6,4.46,100,3.14,23.4,7.48,4.46,8.9,< 15,< 50,EC50 (Meloidogyne incognita [22]): 29.1 µg/mL
CCOP(=S)(OCC)Oc1nc(Cl)c(Cl)cc1Cl [CHLORPYRIFOS],,,,,,,,,,,,,,,,< 15,,mortality at 200 µg/mL [23]: 100%; Activity [24]: Active

# Source: ChEMBL document CHEMBL3046419, “Nematicidal activity of anion transport blockers against Meloidogyne incognita, Caenorhabditis elegans and Heterorhabditis bacteriophora” (Pest Manag Sci, 2008)
